By IC50 is commonly meant the concentration needed to halve the response being measured. Read a high IC50 as lower potency.

This experiment concerns the target T1, Tyrosine-protein phosphatase non-receptor type 1 (Homo sapiens, UniProt P18031).
T1 sequence (P18031 whole entry): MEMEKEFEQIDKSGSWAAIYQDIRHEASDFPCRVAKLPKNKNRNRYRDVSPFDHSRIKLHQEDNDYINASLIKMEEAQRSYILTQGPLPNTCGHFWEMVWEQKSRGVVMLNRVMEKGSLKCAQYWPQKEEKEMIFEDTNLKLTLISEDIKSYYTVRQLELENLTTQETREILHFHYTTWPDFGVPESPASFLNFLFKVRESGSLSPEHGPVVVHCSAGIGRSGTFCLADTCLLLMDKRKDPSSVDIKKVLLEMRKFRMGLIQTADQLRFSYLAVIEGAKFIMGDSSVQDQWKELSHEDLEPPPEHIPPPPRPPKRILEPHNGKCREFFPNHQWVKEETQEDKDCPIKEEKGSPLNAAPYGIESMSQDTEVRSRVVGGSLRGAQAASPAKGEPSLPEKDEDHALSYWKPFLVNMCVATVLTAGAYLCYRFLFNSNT
As to the kind of experiment: Inhibition of human PTP1B.

Compound `O=C1Oc2cc(O)c3c(c2[C@@]12c1c(O)cc(O)cc1O[C@@H]2c1ccc(O)cc1)O[C@H](c1ccc(O)cc1)[C@H](O)C3` registered an IC50 of 8.1 µM.
In the case of `O=C1Oc2cc(O)c3c(c2[C@@]12c1c(O)cc(O)cc1O[C@H]2c1ccc(O)cc1)O[C@H](c1ccc(O)cc1)[C@@H](O)C3`, the IC50 stood at 4.6 µM.
Then `O=C1Oc2cc(O)c3c(c2[C@]12c1c(O)cc(O)cc1O[C@H]2c1ccc(O)cc1)O[C@H](c1ccc(O)cc1)[C@@H](O)C3`, with 11.2 µM; and `O=C1Oc2cc(O)c3c(c2[C@]12c1c(O)cc(O)cc1O[C@@H]2c1ccc(O)cc1)O[C@H](c1ccc(O)cc1)[C@@H](O)C3`, with 3.3 µM.
Then `O=C1Oc2cc(O)c3c(c2[C@@]12c1c(O)cc(O)cc1O[C@@H]2c1ccc(O)cc1)O[C@H](c1ccc(O)cc1)[C@@H](O)C3`, with 17.1 µM; and `O=C1Oc2cc(O)c3c(c2[C@]12c1c(O)cc(O)cc1O[C@@H]2c1ccc(O)cc1)O[C@H](c1ccc(O)cc1)[C@H](O)C3` [LARIXINOL], with 12.9 µM.

Source of the values: ChEMBL document CHEMBL4610051, “Spirobiflavonoid stereoisomers from the endangered conifer Glyptostrobus pensilis and their protein tyrosine phosphatase 1B inhibitory activity” (Bioorg Med Chem Lett, 2020).
